The values that follow come from ChEMBL document CHEMBL1153656, “Synthesis of homochiral potassium channel openers: role of the benzopyranyl 3-hydroxyl group in cromakalim and pyridine N-oxides in determining the biological activities of enantiomers” (Bioorg Med Chem Lett, 1992).

The first test is filed under the species Rattus norvegicus. Nature of the test: The concentration of test substance producing half maximal reduction of the contraction evoked by 20 mM KCI in rat hepatic portal veins. In kind it is functional.
Conditions: not given
The IC50 is the point on the concentration scale where inhibition reaches its midpoint. Lower therefore signals inhibition by little substance. As to `CC1(C)Oc2ccc(C#N)cc2[C@H](N2CCCC2=O)[C@H]1O` (single isomer, unassigned) [(-)-CROMAKALIM], half-maximal inhibition (IC50) was put at 0.074 µM.

The molecule `CC1(C)Oc2ccc(C#N)cc2[C@H](N2CCCC2=O)[C@H]1O` [(-)-CROMAKALIM] had an IC50 of 6.6 µM.

Staying with this test, now noted: Rattus norvegicus.
`CC1(C)Oc2ccc(C#N)cc2[C@H](c2cccc[n+]2[O-])[C@H]1O` yielded an IC50 of 1.2 µM.

The molecule `CC1(C)C[C@H](N2CCCC2=O)c2cc(C#N)ccc2O1` returned an IC50 of 1.15 µM.

On to `CC1(C)C[C@H](c2cccc[n+]2[O-])c2cc(C#N)ccc2O1`, for which inhibition was half-maximal at 0.21 µM (IC50).

Molecule `CC1(C)Oc2ccc(C#N)cc2[C@@H](c2cccc[n+]2[O-])[C@@H]1O` gave an IC50 of 0.1 µM.

For `CC1(C)C[C@@H](c2cccc[n+]2[O-])c2cc(C#N)ccc2O1`, the IC50 amounted to 0.075 µM.

On to `CC1(C)C[C@@H](N2CCCC2=O)c2cc(C#N)ccc2O1`, for which the midpoint of inhibition, the IC50, lay at 0.52 µM.
